Experimental data from patent publication US9061079B2, “Peptides that home to atherosclerotic plaques and methods of use” (Sanford-Burnham Medical Research Institute, priority 2011, dated 2015).
Each block holds one compound with its values, some of them ahead of it. Ends that are not written are not given here. FAM = fluorescein label

Key:
[1] = system: atherosclerotic plaques; test: Homing of intravenously injected FAM-labeled peptides to plaques, fluorescence histology of aorta sections; assay type: in vivo, mice (ApoE-null); conditions: for accumulation in plaque tissue (fluorescence of aorta sections): atherosclerotic ApoE-null mice, 100 μg FAM-peptide intravenously, 1 hour circulation
Excerpt: (§1) Atherosclerotic plaques in male and female mice homozygous for the ApoetmlUnc mutation (ApoE-null mice) (The Jackson Laboratory) were induced by maintaining the mice on a high fat diet (Reddick et al., Arterioscler. Thromb. 14:141-147 (1994); Maeda et al., Atherosclerosis 195:75-82 (2007)) for 6 to 8 months. Healthy aortas were obtained from age-matched C7BL/6 wild-type mice fed on a normal diet. The mice were housed and all procedures performed with the approval and according to standards of the University of California, Santa Barbara and University of California, Davis Institutional Animal Care and Use Committees. To test peptide homing, the mice were injected intravenously via retro-orbital under isoflurane inhalation (isoflurane 2% to 3% vol/vol+2 L/min O2) anesthesia and, when applicable, subsequently perfused with high glucose DMEM through the left ventricle to remove unbound reagent. Tissues were excised and left unfixed or fixed with 4% paraformaldehyde.
Fresh frozen OCT-embedded tissue was sectioned at 7 μm, fixed with ice cold acetone, blocked with 4% serum in PBS, and stained with antibodies. The following antibodies were used: anti-mouse p32 (rabbit polyclonal; (Fogal et al., supra (2008)), CD68 (rat monoclonal, eBioscience), CD11b (rat monoclonal, eBioscience), CD31 (rat monoclonal, eBioscience), podoplanin (hamster monoclonal, eBioscience), LYVE-1 (rat monoclonal, eBioscience), anti-FITC-HRP (goal polyclonal, ACRIS). Purified rat IgG2a K isotype control (BD Pharmingen), normal rabbit IgG (R&D) and normal goat IgG (R&D) were used as controls. The following secondary antibodies from Invitrogen were used for detection: goat anti-rat 488/546, goat anti-rabbit 488/546, donkey anti-goat 488/546, goat anti-hamster 546 and goat anti-rat 647. Primary antibodies were incubated for 1 to 4 hours at room temperature, or at 4° C. to detect cell surface expression. Stained tissue sections were mounted in Vectorshield DAPI-containing mounting media (Vector lab). […]
Tissue sections were examined under a FluoView™ 500 confocal laser-scanning microscope (Olympus) or BX60 fluorescence microscope with MiroFire camera (Olympus). Whole-tissue uptake of fluorescein-labeled peptides following in vivo circulation was imaged using a 530-nm viewing filter, Illumatool light source (Light Tools Research) and recorded with a Canon XTi DSLR camera.
To detect peptide homing to plaques, the distribution of intravenously injected peptides that had been labeled with fluorescein ([…]; FAM) were analyzed. […]
Atherosclerotic mice were injected with 100 μg of FAM-LyP-2 and the probe was allowed to circulate for 1 hour. Following 1 hour of circulation, the aorta was collected and the peptide was detected in tissue sections by fluorescence detection.

[2] = system: cells released from plaques; test: FACS analysis of cells released from plaques after in vivo circulation of FAM-peptides; set-up: species or system mice (ApoE-null); conditions: for % of FAM positive cells among cells released from plaques: after 4 hours in vivo circulation
Excerpt: as §1
Cells from plaques and other tissues were released into suspension by 2-hour incubation at 37° C. in a tissue digestion cocktail containing 450 U/mL collagenase type 1 (Worthington Biochemical), 1 mg/mL soybean trypsin inhibitor (Worthington Biochemical), 4.7 U/mL elastase (Worthington Biochemical), 1 mg/mL DNase 1 (Sigma Aldrich) and 0.5% fetal calf serum (FCS). CD11b PE-Cy5 (rat monoclonal, eBioscience) was used to identify monocytes/macrophages. Positive cells were quantified on GUAVA FACS instrument (Millipore) and data were analyzed using FCS Express Version 3 (De Novo Software).
To detect peptide homing to plaques, the distribution of intravenously injected peptides that had been labeled with fluorescein ([…]; FAM) were analyzed. […] Staining with an anti-fluorescein antibody confirmed the presence of LyP-1 in the plaques. For comparison, mice were also injected with a peptide previously shown to home to plaques, CREKA (SEQ ID NO:4) (Peters et al., Proc. Natl. Acad. Sci. USA 106:9815-9819 (2009)). […]

[3] = system: dermatitis; test: Treatment of dermatitis in ApoE-null mice on high-fat diet; assay type: in vivo
Description: The effect of LyP-1 treatment on dermatitis was tested. ApoE-null mice that were on a high-fat diet and suffered from severe dermatitis refractory to topical antibiotic treatment were treated with intraperitoneal injections of 200 μg of LyP-1 or control peptide ([…]; SEQ ID NO:6) three times a week for one month (while continuing their diet). The condition of the skin before and after the treatment was recorded in photographs. […] Thus, LyP-1 treatment improves dermatitis.
The effect of LyP-1 on skin dermatitis correlates with reduced in p32 expression and macrophage accumulation. Mice treated as above in FIG. 19 were intravenously injected with 100 μL of 1 mM fluorescein-labeled LyP-1 and peptide was allowed to circulate for 2 hours. Sections of skin biopsies obtained before and after 4 weeks of LyP-1 treatment were analyzed.

[4] = system: porcine iliofemoral arteries; conditions: arteries infected with adenoviral vector encoding tk, then exposure to ganciclovir; cited from earlier work
[5] = system: mitochondrial membranes; conditions: concentration of 10 μM; cited from earlier work
[6] = system: primary cells released from plaques; test: Peptide binding ex vivo (FACS); assay type: cell-based, mice (ApoE-null); conditions: 1 nmol FAM-peptide, 10 min on ice
Description: (§2) Dead cells were first removed from the cell suspension released from aorta, isolated macrophages from 4T1 tumors and spleen and bone marrow cells using Dead cell removal kit (Miltenyi Biotec). Cells were incubated with 1 nmol of either FAM-LyP-1 or FAM-ARAL (SEQ ID NO:5) for 10 min on ice. After washing, the cell pellets were resuspended in buffer containing 1 μg propidium iodide. Cells positive for FAM and propidium iodide staining were quantified on GUAVA FACS instrument (Millipore) and data were analyzed using FCS Express Version 3 (De Novo Software). The % of viable cells after dead cell removal in each case was >75%.

[7] = system: bone marrow cells; test: Peptide binding ex vivo (FACS); assay type: cell-based, mice (ApoE); conditions: 1 nmol FAM-peptide, 10 min on ice
Description: Bone marrow cells were isolated from the tibias and femurs of ApoE mice on high fat diet by flushing high glucose DMEM media (Gibco) using an 18 gauge needle and passed through a 70 μm nylon mesh cell strainer (BD).
as §2

[8] = system: plaque macrophages; test: Effect of treatment on plaque macrophages (FACS of cells released from plaques); assay type: in vivo, mice (ApoE null); conditions: after 4 weeks of treatment, versus control-treated aortas
Description: (§3) The effect of LyP-1 treatment on plaque formation was tested. ApoE null mice fed a high-fat diet for 5 months were treated with intraperitoneal injections of 200 μg of LyP-1 or control peptide ([…]; SEQ ID NO:6) three times a week for one month (while continuing their diet).
The effect of LyP-1 treatment on plaque macrophages was tested.

[9] = system: atherosclerotic plaques; test: Effect of treatment on plaque formation; assay type: in vivo, mice (ApoE null); conditions: 200 μg intraperitoneally three times a week for one month, high-fat diet
Description: as §3

[10] = system: CD11b-positive macrophages from 4T1-tumors; test: Peptide binding ex vivo (FACS); assay type: cell-based, mice (BALB/c); conditions: 1 nmol FAM-peptide, 10 min on ice
Description: (§4) To produce 4T1 tumors, normal female BALB/c mice were orthotopically injected into the mammary fat pad with 1×10^6 4T1 cells suspended in 100 μL of PBS. All animal experimentation received approval from the Animal Research Committee of University of California, Santa Barbara. Fully grown 4T1 tumors and control spleen were excised from the mice two weeks after inoculation, minced and incubated with tissue digestion cocktail containing 2 mg/mL Collagenase IV (Worthington Biochem Corp) and 1 mg/mL DNAse 1 (Sigma) solution in high glucose DMEM media (Gibco) at 37° C. for 1 hour. Cells were passed through 70 μm nylon mesh cell strainer (BD). CD11b-positive macrophages were isolated using the MACS CD11b-positive microbeads (Miltenyi Biotec).
as §2

[11] = system: monocytes/macrophages isolated from spleen; test: Peptide binding ex vivo (FACS); assay type: cell-based, mice; conditions: 1 nmol FAM-peptide, 10 min on ice
Description: as §4, §2

[12] = system: 4T1 tumors; test: Treatment of 4T1 tumor mice with peptide, effect on tumor macrophages; assay type: in vivo, mice (BALB/c); conditions: 60 μg daily tail vein injections for 12 days, versus control peptide
Description: The effect of LyP-1 peptide treatment of mice with tumors was tested. To produce 4T1 breast cancer tumors, normal female BALB/c mice were orthotopically injected into the mammary fat pad with 1×10^6 4T1 cells suspended in 100 μL of PBS. The mice were treated with daily tail vein injections of 60 μg of LyP-1 or control peptide ([…]; SEQ ID NO:6) for 12 days. […] Cell suspensions were prepared from 4T1 tumors from mice treated with LyP-1 or the control peptide. The tumors were incubated for 1 hour at 37° C. in a tissue digestion cocktail containing 2 mg/mL Collagenase IV (Worthington Biochem Corp) and 1 mg/mL DNAse 1 (Sigma) in high glucose DMEM media (Gibco). The resulting cell suspension was passed through 70 μm nylon mesh cell strainer (BD), and the live cells were double stained for cell surface p32 (rabbit anti-mouse p32, Fogal et al., supra (2008)) and macrophages (rat anti-mouse CD11b, ebioscience) and analyzed by FACS.

[13] = 100 μL of 1 mM intravenously, 2 hours circulation
[14] = after 4 weeks of treatment, versus control-treated mice

Compound: FAM-ARALPSQRSR: control peptide ARALPSQRSR labeled with FAM ({FAM}-ARALPSQRSR) [reference compound]
accumulation in plaque tissue (fluorescence of aorta sections) [1]: did not accumulate in the plaques

Compound: FAM-CREKA: CREKA peptide labeled with fluorescein (FAM) ({FAM}-CREKA) [reference compound]
accumulation in plaque tissue (fluorescence of aorta sections) [1]: essentially confined to the surface of the plaques

Compound: ARALPSQRSR
% of FAM positive cells among cells released from plaques [2]: 7.5±4.1%

Compound: CREKA
CD11b-positive plaque cells positive for peptide uptake ([2]; 4 hours after intravenous injection): taken up by a small number of CD11b-negative cells | % of FAM positive cells among cells released from plaques [2]: 18.1±4.6%

Compound: FAM-LyP-1: LyP-1 peptide labeled with fluorescein (FAM) ({FAM}-CGNKRTRGC; disulfide (positions not given here); not fully specified (bridges); also: cyclic, kind not given here)
accumulation in plaque tissue (fluorescence of aorta sections) [1]: extensive accumulation of FAM-LyP-1 inside the plaque tissue | peptide homing to healed dermatitis skin from LyP-1-treated mice [3, 13]: attenuated LyP-1 homing | peptide homing to inflamed skin from control-treated mice [3, 13]: robust LyP-1 homing | peptide homing to normal skin [3, 13]: no LyP-1 homing

Compound: Nc1nc(O)c2ncn(COC(CO)CO)c2n1 [ganciclovir]
reduction of neointimal thickening following balloon injury [4]: 50-87%

Compound: D(KLAKLAK)2 (KLAKLAKKLAKLAK; D-amino acids)
mitochondrial swelling [5]: marked mitochondrial swelling

binding to CD11b-positive macrophages from 4T1-tumors [10]: significant binding | binding to monocytes/macrophages isolated from spleen [11]: little binding
Compound: CGNKRTRGC (disulfide (positions not given here); not fully specified (bridges); also: cyclic, kind not given here) [LyP-1]
binding to primary cells released from plaques [6]: significant binding | binding to bone marrow cells [7]: little binding | percentage of total macrophages (p32-positive and negative) among cells released from plaques [8]: lower percentage of total macrophages | accumulation in healthy aortas and non-aortic tissues of the atherosclerotic mice ([1]; intravenous FAM-peptide): no significant accumulation | skin condition (dermatitis) ([3]; 200 μg intraperitoneally three times a week for one month): significant improvement of their skin condition | cells positive for CD11b and p32 in skin [3, 14]: smaller numbers of cells positive for CD11b and p32 | skin thickness of healed dermatitis skin [3, 14]: reduced thickness | plaque formation in excised ascending and descending aorta [9]: reduced plaque formation | macrophages positive for cell surface p32 in 4T1 tumors [12]: reduced | total number of macrophages (CD11b-positive cells) in 4T1 tumors [12]: reduced
